Where a name gives a salt, the structure may show the parent alone.
Assays:
[1] = molecular target: Human KDR (residues 790-1356) (Homo sapiens (Human), UniProt P35968); assay: Human KDR kinase assay, HTRF KinEase (Example B-2); format: biochemical; conditions: protocol of Example B-2 (other compounds)
How it was run: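 Human KDR residues 790-1356 (0.1 ng/well) in buffer with 5 mM MgCl2, 1 mM MnCl2, 1 mM DTT, biotinylated peptide substrate, ATP at Km (4.0 μM), 3% DMSO, 10 compound concentrations; 40 min, room temperature. EDTA stop, streptavidin-XL665/Eu-TK antibody HTRF read 665/620 nm; 4-parameter IC50.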

[2] = molecular target: Met (phospho-Met, HGF-stimulated PC-3 prostate cancer cells) (Homo sapiens (Human), UniProt P08581); assay: Met autophosphorylation ELISA in PC-3 cells (Example F); format: cell-based; conditions: cellular activity; Met autophosphorylation ELISA in PC-3 cells; read-out: c-Met IC50
How it was run: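 Sandwich ELISA for phospho-Met (panTyr) in PC-3 lysates. Cells starved 3 h serum-free, compound 1 h (8-pt curve, 0.3% DMSO), HGF 100 ng/mL 10 min. 100% = HGF + DMSO; 0% = HGF + reference inhibitor. IC50 by 4-parameter fit.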

[3] = molecular target: Mer (phospho-Mer, MERTK-transfected 293A cells) (Homo sapiens (Human), UniProt Q12866); assay: Mer autophosphorylation ELISA in transient transfected 293A cells (Example H); format: cell-based; conditions: cellular activity; Mer autophosphorylation ELISA in transient transfected 293A cells
How it was run: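 293A cells transiently transfected with human MERTK were treated 1 h in serum-free medium with an 8-point compound dilution (0.3% DMSO final). Lysates were assayed by phospho-Mer sandwich ELISA against a phospho-Mer standard; IC50 came from a 4-parameter logistic fit, normalised to DMSO (100%) and reference-inhibitor (0%) controls.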

[4] = molecular target: Human MER (residues 528-999) (Homo sapiens (Human), UniProt Q12866); assay: Human Mer kinase assay, HTRF KinEase (Example C-2); format: biochemical; conditions: protocol of Example C-2 (other compounds)
How it was run: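 Recombinant MER 528-999 (1 ng/well) in buffer with 5 mM MgCl2 and 1 mM DTT was reacted with biotinylated peptide and ATP at Km (40 μM) for 60 min at room temperature. EDTA stop with SA-XL665 and Eu3+ TK antibody, then 665/620 nm HTRF read; IC50 from 4-parameter fit.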

Chain of Met (phospho-Met, HGF-stimulated PC-3 prostate cancer cells) (P08581 25-1390): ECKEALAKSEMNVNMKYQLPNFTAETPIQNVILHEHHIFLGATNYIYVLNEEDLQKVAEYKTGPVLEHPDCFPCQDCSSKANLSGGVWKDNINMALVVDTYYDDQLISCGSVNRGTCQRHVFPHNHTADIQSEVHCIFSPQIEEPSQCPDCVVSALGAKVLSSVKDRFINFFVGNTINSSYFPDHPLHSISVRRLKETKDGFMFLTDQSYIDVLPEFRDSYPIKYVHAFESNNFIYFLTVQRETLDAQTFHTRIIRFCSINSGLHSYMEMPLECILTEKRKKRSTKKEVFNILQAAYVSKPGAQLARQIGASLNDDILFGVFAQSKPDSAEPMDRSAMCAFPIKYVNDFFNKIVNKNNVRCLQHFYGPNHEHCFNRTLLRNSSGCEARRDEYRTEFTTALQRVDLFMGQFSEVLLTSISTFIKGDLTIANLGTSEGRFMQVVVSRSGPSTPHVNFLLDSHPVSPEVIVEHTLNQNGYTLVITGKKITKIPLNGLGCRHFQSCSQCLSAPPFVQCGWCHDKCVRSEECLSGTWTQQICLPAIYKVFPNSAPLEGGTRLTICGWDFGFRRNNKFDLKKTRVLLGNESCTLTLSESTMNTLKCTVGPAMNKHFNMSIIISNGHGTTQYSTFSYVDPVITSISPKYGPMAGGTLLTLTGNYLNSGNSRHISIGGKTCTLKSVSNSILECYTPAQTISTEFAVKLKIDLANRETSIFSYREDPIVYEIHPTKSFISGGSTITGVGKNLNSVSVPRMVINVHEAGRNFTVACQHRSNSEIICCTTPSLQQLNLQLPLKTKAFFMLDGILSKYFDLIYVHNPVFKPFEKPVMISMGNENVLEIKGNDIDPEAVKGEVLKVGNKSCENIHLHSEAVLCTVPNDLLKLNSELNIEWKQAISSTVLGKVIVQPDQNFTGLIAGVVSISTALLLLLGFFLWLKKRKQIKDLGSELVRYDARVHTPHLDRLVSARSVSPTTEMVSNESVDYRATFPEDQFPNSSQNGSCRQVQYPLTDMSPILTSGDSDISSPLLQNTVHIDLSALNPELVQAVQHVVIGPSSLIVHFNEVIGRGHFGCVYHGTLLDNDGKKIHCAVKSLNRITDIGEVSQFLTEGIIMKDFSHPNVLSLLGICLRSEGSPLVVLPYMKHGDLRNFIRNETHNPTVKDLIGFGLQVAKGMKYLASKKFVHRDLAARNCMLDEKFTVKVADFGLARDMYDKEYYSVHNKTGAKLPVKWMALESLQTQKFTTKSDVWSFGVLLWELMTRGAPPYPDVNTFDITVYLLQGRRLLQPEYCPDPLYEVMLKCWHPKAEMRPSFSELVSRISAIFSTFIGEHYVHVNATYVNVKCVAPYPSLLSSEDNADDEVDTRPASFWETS
Chain of Mer (phospho-Mer, MERTK-transfected 293A cells) (Q12866 21-999): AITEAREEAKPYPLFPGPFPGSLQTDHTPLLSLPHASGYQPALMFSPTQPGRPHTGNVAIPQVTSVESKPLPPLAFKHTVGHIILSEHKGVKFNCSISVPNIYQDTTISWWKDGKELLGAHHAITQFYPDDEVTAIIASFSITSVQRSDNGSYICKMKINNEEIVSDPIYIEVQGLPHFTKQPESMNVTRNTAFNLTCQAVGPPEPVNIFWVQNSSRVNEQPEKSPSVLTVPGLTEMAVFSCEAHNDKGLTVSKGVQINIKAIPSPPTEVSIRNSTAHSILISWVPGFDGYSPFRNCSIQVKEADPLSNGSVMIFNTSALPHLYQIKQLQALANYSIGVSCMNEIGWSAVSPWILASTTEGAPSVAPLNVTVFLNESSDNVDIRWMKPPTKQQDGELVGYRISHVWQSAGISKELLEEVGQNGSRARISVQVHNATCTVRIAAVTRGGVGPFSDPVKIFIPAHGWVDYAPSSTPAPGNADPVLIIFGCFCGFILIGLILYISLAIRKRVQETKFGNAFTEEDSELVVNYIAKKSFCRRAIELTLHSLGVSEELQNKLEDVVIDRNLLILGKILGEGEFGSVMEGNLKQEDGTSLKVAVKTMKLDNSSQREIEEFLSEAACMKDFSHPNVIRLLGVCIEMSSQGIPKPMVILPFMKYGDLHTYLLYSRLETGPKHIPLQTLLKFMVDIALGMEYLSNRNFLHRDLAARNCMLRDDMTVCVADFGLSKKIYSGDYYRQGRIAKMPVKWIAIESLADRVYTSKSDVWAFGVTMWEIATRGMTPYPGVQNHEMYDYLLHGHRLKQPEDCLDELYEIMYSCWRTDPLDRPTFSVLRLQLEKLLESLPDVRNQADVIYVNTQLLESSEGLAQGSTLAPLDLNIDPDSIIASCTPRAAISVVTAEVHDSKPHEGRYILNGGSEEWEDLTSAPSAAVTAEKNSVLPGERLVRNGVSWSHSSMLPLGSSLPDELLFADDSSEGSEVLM
Chain of Human KDR (residues 790-1356) (P35968 790-1356): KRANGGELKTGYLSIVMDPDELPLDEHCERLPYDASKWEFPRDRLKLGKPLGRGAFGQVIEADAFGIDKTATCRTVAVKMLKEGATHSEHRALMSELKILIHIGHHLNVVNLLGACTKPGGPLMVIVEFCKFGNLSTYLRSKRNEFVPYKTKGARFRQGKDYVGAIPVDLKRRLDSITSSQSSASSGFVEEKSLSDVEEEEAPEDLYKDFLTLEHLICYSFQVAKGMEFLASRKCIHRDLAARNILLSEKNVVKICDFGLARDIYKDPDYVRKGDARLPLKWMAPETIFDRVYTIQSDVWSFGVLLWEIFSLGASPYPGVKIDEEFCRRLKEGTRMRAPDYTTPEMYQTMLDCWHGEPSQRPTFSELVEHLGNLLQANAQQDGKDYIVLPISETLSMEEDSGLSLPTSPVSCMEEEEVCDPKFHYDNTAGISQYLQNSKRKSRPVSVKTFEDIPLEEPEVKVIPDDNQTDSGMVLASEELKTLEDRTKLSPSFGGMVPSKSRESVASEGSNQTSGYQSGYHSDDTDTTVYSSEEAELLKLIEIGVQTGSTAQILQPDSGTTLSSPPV
Chain of Human MER (residues 528-999) (Q12866 528-999): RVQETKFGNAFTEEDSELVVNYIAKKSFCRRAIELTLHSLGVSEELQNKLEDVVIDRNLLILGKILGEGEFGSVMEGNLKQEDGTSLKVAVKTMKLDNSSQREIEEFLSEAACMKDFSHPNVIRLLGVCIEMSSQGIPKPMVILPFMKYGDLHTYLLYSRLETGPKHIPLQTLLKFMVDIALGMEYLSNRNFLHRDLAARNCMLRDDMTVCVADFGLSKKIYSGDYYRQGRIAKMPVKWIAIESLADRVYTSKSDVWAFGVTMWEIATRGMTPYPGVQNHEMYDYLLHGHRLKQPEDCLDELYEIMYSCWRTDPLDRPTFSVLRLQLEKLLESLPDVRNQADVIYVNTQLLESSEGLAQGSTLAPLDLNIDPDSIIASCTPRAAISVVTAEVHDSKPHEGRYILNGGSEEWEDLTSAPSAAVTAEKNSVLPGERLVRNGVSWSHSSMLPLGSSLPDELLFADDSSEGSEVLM

IC50 [1] [nM] | IC50 [2] [nM] | IC50 [3] [nM] | IC50 [4] [nM] | SMILES
100 to 300 | < 100 | < 100 | < 100 | Cc1nc(C)c(-c2ccc(F)cc2)c(O)c1C(=O)Nc1ccc(Oc2ccnc3cc(OCc4ccccc4)cnc23)c(F)c1 [Compound 277, 5-(4-Fluorophenyl)-N-[3-fluoro-4-[(7-phenylmethoxy-1,5-naphthyridin-4-yl)oxy]phenyl]-4-hydroxy-2,6-dimethylpyridine-3-carboxamide]
100 to 300 | 100 to 300 | < 100 | < 100 | COc1cc2nccc(Oc3ccc(NC(=O)c4cn(C)cc(-c5ccc(Cl)cc5)c4=O)cc3F)c2nc1OC [Compound 38, 5-(4-Chlorophenyl)-N-[4-[(6,7-dimethoxy-1,5-naphthyridin-4-yl)oxy]-3-fluorophenyl]-1-methyl-4-oxopyridine-3-carboxamide hydrochloride]
< 100 | < 100 | < 100 | < 100 | Cc1nc(C)n(-c2ccc(F)cc2)c(=O)c1C(=O)Nc1ccc(Oc2ccnc3cc(OCc4ccccc4)cnc23)c(F)c1 [Compound 278, 1-(4-Fluorophenyl)-N-[3-fluoro-4-[(7-phenylmethoxy-1,5-naphthyridin-4-yl)oxy]phenyl]-2,4-dimethyl-6-oxopyrimidine-5-carboxamide]
100 to 300 | < 100 | < 100 | < 100 | COc1ccc2nccc(Oc3ccc(NC(=O)c4c(C)nc(C)c(-c5ccc(F)cc5)c4O)cc3F)c2c1 [Compound 345, N-[3-fluoro-4-(6-methoxyquinolin-4-yl)oxyphenyl]-5-(4-fluorophenyl)-4-hydroxy-2,6-dimethylpyridine-3-carboxamide]
> 300 | < 100 | < 100 | < 100 | COc1cc2nccc(Oc3c(F)cc(NC(=O)c4cn(C)c(C)c(-c5ccc(F)cc5)c4=O)cc3F)c2nc1OC [Compound 392, N-[4-[(6,7-dimethoxy-1,5-naphthyridin-4-yl)oxy]-3,5-difluorophenyl]-5-(4-fluorophenyl)-1,6-dimethyl-4-oxopyridine-3-carboxamide]
> 300 | < 100 | < 100 | < 100 | COc1cc2nccc(Oc3ncc(NC(=O)c4cn(C5CC5)cc(-c5ccc(F)cc5)c4=O)cc3F)c2cc1OC [Compound 399, 1-cyclopropyl-N-[6-(6,7-dimethoxyquinolin-4-yl)oxy-5-fluoropyridin-3-yl]-5-(4-fluorophenyl)-4-oxopyridine-3-carboxamide]
> 300 | < 100 | < 100 | < 100 | COc1cnc2c(Oc3ccc(NC(=O)c4cnc(C)n(-c5ccc(F)cc5)c4=O)cc3F)ccnc2c1 [Compound 265, N-[3-Fluoro-4-[(7-methoxy-1,5-naphthyridin-4-yl)oxy]phenyl]-1-(4-fluorophenyl)-2-methyl-6-oxopyrimidine-5-carboxamide]
> 300 | < 100 | < 100 | < 100 | COc1cc2nccc(Oc3ccc(NC(=O)c4cn(C)c(C)c(-c5ccc(F)cc5)c4=O)c(F)c3F)c2nc1OC [Compound 390, N-[4-[(6,7-dimethoxy-1,5-naphthyridin-4-yl)oxy]-2,3-difluorophenyl]-5-(4-fluorophenyl)-1,6-dimethyl-4-oxopyridine-3-carboxamide]
> 300 | 100 to 300 | < 100 | < 100 | COc1ccc2nccc(Oc3ccc(NC(=O)c4ccc(C)n(-c5ccc(F)cc5C)c4=O)cc3)c2n1 [Compound 276, 1-(4-Fluoro-2-methylphenyl)-N-[4-[(6-methoxy-1,5-naphthyridin-4-yl)oxy]phenyl]-6-methyl-2-oxopyridine-3-carboxamide]
< 100 | < 100 | < 100 | < 100 | COc1cnc2c(Oc3ccc(NC(=O)c4c(C)cc(C)n(-c5ccc(F)cc5)c4=O)cc3F)ccnc2c1 [Compound 280, N-[3-Fluoro-4-[(7-methoxy-1,5-naphthyridin-4-yl)oxy]phenyl]-1-(4-fluorophenyl)-4,6-dimethyl-2-oxopyridine-3-carboxamide]
< 100 | < 100 | < 100 | < 100 | COc1ccc2nccc(Oc3ccc(NC(=O)c4c(C)ccn(-c5ccc(F)cc5)c4=O)cc3F)c2n1 [Compound 287, N-[3-Fluoro-4-[(6-methoxy-1,5-naphthyridin-4-yl)oxy]phenyl]-1-(4-fluorophenyl)-4-methyl-2-oxopyridine-3-carboxamide]
> 300 | < 100 | < 100 | < 100 | COc1ccc2nccc(Oc3ccc(NC(=O)c4cccn(-c5ccc(F)cc5)c4=O)cc3F)c2n1 [Compound 292, N-[3-Fluoro-4-[(6-methoxy-1,5-naphthyridin-4-yl)oxy]phenyl]-1-(4-fluorophenyl)-2-oxopyridine-3-carboxamide]
100 to 300 | < 100 | < 100 | < 100 | COCCOc1ccc2nccc(Oc3ccc(NC(=O)c4ccc(C)n(-c5ccc(F)cc5)c4=O)cc3F)c2n1 [Compound 350, N-[3-fluoro-4-[[6-(2-methoxyethoxy)-1,5-naphthyridin-4-yl]oxy]phenyl]-1-(4-fluorophenyl)-6-methyl-2-oxopyridine-3-carboxamide]
> 300 | < 100 | < 100 | < 100 | COc1cc2nccc(Oc3ccc(NC(=O)c4cn(C)cc(-c5c(C)cc(F)cc5C)c4=O)cc3F)c2nc1OC [Compound 268, N-[4-[(6,7-Dimethoxy-1,5-naphthyridin-4-yl)oxy]-3-fluorophenyl]-5-(4-fluoro-2,6-dimethylphenyl)-1-methyl-4-oxopyridine-3-carboxamide]
> 300 | < 100 | < 100 | < 100 | COc1cnc2c(Oc3ccc(NC(=O)c4cccn(-c5ccc(F)cc5)c4=O)cc3F)ccnc2c1 [Compound 291, N-[3-Fluoro-4-[(7-methoxy-1,5-naphthyridin-4-yl)oxy]phenyl]-1-(4-fluorophenyl)-2-oxopyridine-3-carboxamide]
> 300 | < 100 | < 100 | < 100 | COc1cnc2c(Oc3ccc(NC(=O)c4cnc(C)n(-c5ccc(F)cc5)c4=O)cc3)ccnc2c1 [Compound 266, 1-(4-Fluorophenyl)-N-[4-[(7-methoxy-1,5-naphthyridin-4-yl)oxy]phenyl]-2-methyl-6-oxopyrimidine-5-carboxamide]
100 to 300 | < 100 | < 100 | < 100 | Cc1nc(C)c(-c2ccc(F)cc2)c(O)c1C(=O)Nc1ccc(Oc2ccnc3ccc(OCCN(C)C)nc23)c(F)c1 [Compound 354, N-[4-[[6-[2-(dimethylamino)ethoxy]-1,5-naphthyridin-4-yl]oxy]-3-fluorophenyl]-5-(4-fluorophenyl)-4-hydroxy-2,6-dimethylpyridine-3-carboxamide]
< 100 | < 100 | < 100 | < 100 | COc1cnc2c(Oc3ccc(NC(=O)c4c(C)cc(C)n(-c5ccc(F)cc5)c4=O)cc3)ccnc2c1 [Compound 289, 1-(4-Fluorophenyl)-N-[4-[(7-methoxy-1,5-naphthyridin-4-yl)oxy]phenyl]-4,6-dimethyl-2-oxopyridine-3-carboxamide]
> 300 | < 100 | < 100 | < 100 | CCn1cc(C(=O)Nc2ccc(Oc3ccnc4cc(OC)cnc34)c(F)c2)c(=O)c(-c2ccc(F)cc2)c1CO [Compound 273, 1-Ethyl-N-[3-fluoro-4-[(7-methoxy-1,5-naphthyridin-4-yl)oxy]phenyl]-5-(4-fluorophenyl)-6-(hydroxymethyl)-4-oxopyridine-3-carboxamide]
100 to 300 | < 100 | < 100 | < 100 | COc1cnc2c(Oc3ccc(NC(=O)c4c(C)ccn(-c5ccc(F)cc5)c4=O)cc3)ccnc2c1 [Compound 300, 1-(4-Fluorophenyl)-N-[4-[(7-methoxy-1,5-naphthyridin-4-yl)oxy]phenyl]-4-methyl-2-oxopyridine-3-carboxamide]
< 100 | < 100 | < 100 | < 100 | COc1cc2nccc(Oc3ccc(NC(=O)c4c(C)cc(C)n(-c5ccc(F)cc5C)c4=O)cc3F)c2nc1OC [Compound 298, N-[4-[(6,7-Dimethoxy-1,5-naphthyridin-4-yl)oxy]-3-fluorophenyl]-1-(4-fluoro-2-methylphenyl)-4,6-dimethyl-2-oxopyridine-3-carboxamide]

— US12371428B2 (Exelixis, Inc., priority 2019, dated 2025)
